For two molecules, IC50 results are on record in ChEMBL document CHEMBL1201861, “Genomics of Drug Sensitity in Cancer screening data, Wellcome Trust Sanger Institute”.

Where only a bound is given, the exact number is not on record here.

The subject of one test is IMR-5. Briefly: cells. The test is classed as functional, cell-based, Homo sapiens. Conditions: Homo sapiens, IMR-5.
Description: SANGER: Inhibition of human IMR-5 cell growth in a cell viability assay.
As a reminder, the IC50 is the concentration that gives 50% inhibition. In turn, `Cc1ccc(NC(=O)c2ccc(CN3CCN(C)CC3)cc2)cc1Nc1nccc(-c2cccnc2)n1` [IMATINIB] registered an IC50 of more than 2 µM.

Still in this test, the particulars now being: Homo sapiens, IMR-5; read-out: IC50.
With `COc1ccc(N(C(=O)Oc2c(C)cccc2C)c2ccnc(Nc3ccc(N4CCN(C)CC4)cc3)n2)c(OC)c1`, the half-inhibitory concentration (IC50) was more than 5.12 µM.

For a further test, the system named is LB647-SCLC. Briefly: cells. The test is classed as functional, cell-based, Homo sapiens. The conditions noted are these: Homo sapiens, LB647-SCLC.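 Further: cell growth inhibition, read out by a viability assay.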
Description: SANGER: Inhibition of human LB647-SCLC cell growth in a cell viability assay.
`COc1ccc(N(C(=O)Oc2c(C)cccc2C)c2ccnc(Nc3ccc(N4CCN(C)CC4)cc3)n2)c(OC)c1` returned a half-inhibitory concentration (IC50) of more than 5.12 µM.
The molecule `Cc1ccc(NC(=O)c2ccc(CN3CCN(C)CC3)cc2)cc1Nc1nccc(-c2cccnc2)n1` [IMATINIB] showed a 50% inhibitory concentration (IC50) of more than 2 µM.

Another test concerns REH. Briefly: cells. The test is classed as functional, cell-based, Homo sapiens. Conditions: Homo sapiens, REH.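 Further: growth inhibition of REH cells determined with a cell viability read-out.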
Description: SANGER: Inhibition of human REH cell growth in a cell viability assay.
With `COc1ccc(N(C(=O)Oc2c(C)cccc2C)c2ccnc(Nc3ccc(N4CCN(C)CC4)cc3)n2)c(OC)c1`, the IC50 is more than 5.12 µM.
On the same count and under the same terms, with `Cc1ccc(NC(=O)c2ccc(CN3CCN(C)CC3)cc2)cc1Nc1nccc(-c2cccnc2)n1` [IMATINIB] the figure was more than 2 µM.

The subject of a further test is NB17. Briefly: cells. The test is classed as functional, cell-based, Homo sapiens. Conditions: Homo sapiens, NB17.
Description: SANGER: Inhibition of human NB17 cell growth in a cell viability assay.
In turn, `COc1ccc(N(C(=O)Oc2c(C)cccc2C)c2ccnc(Nc3ccc(N4CCN(C)CC4)cc3)n2)c(OC)c1` showed an IC50 of 2630 nM.
Still for that read-out and setting: with `Cc1ccc(NC(=O)c2ccc(CN3CCN(C)CC3)cc2)cc1Nc1nccc(-c2cccnc2)n1` [IMATINIB] the figure was more than 2000 nM.

The next test deals with LC4-1. Nature of the test: cells. The test is classed as functional, cell-based, Homo sapiens. The conditions noted are these: Homo sapiens, LC4-1.
Description: SANGER: Inhibition of human LC4-1 cell growth in a cell viability assay.
With `COc1ccc(N(C(=O)Oc2c(C)cccc2C)c2ccnc(Nc3ccc(N4CCN(C)CC4)cc3)n2)c(OC)c1`, the concentration for half-maximal inhibition (IC50) is more than 5.12 µM.
For the molecule `Cc1ccc(NC(=O)c2ccc(CN3CCN(C)CC3)cc2)cc1Nc1nccc(-c2cccnc2)n1` [IMATINIB], the half-maximal inhibitory concentration (IC50) is more than 2 µM.

For the next test, the system named is Kasumi 1. Nature of the test: cells. The test is classed as functional, cell-based, Homo sapiens. Conditions: Homo sapiens, Kasumi 1.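 Further: growth inhibition of human Kasumi-1 cells, read out by a cell viability assay.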
Description: SANGER: Inhibition of human KASUMI-1 cell growth in a cell viability assay.
In turn, `COc1ccc(N(C(=O)Oc2c(C)cccc2C)c2ccnc(Nc3ccc(N4CCN(C)CC4)cc3)n2)c(OC)c1` came in with an IC50 of more than 5.12 µM.
Still for that read-out and setting: with `Cc1ccc(NC(=O)c2ccc(CN3CCN(C)CC3)cc2)cc1Nc1nccc(-c2cccnc2)n1` [IMATINIB] the figure was more than 2 µM.

For a further test, the system named is SU-DHL-1. Nature of the test: SANGER: Inhibition of human SU-DHL-1 cell growth in a cell viability assay. The test is classed as functional, cell-based. Conditions: Homo sapiens, SU-DHL-1.
The molecule `COc1ccc(N(C(=O)Oc2c(C)cccc2C)c2ccnc(Nc3ccc(N4CCN(C)CC4)cc3)n2)c(OC)c1` showed an IC50 of more than 5.12 µM.
Still for that read-out and setting: with `Cc1ccc(NC(=O)c2ccc(CN3CCN(C)CC3)cc2)cc1Nc1nccc(-c2cccnc2)n1` [IMATINIB] the figure was more than 2 µM.

The test system of a further test is NB7. Nature of the test: cells. The test is classed as functional, cell-based, Homo sapiens. The conditions noted are these: Homo sapiens, NB7.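 Further: growth inhibition of NB7 cells, read out with a cell viability assay.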
Description: SANGER: Inhibition of human NB7 cell growth in a cell viability assay.
`COc1ccc(N(C(=O)Oc2c(C)cccc2C)c2ccnc(Nc3ccc(N4CCN(C)CC4)cc3)n2)c(OC)c1`: the 50% inhibitory concentration (IC50) is more than 5.12 µM.
On the same count and under the same terms, with `Cc1ccc(NC(=O)c2ccc(CN3CCN(C)CC3)cc2)cc1Nc1nccc(-c2cccnc2)n1` [IMATINIB] the figure was more than 2 µM.

The next test relates to NB1. Nature of the test: cells. The test is classed as functional, cell-based, Homo sapiens. Conditions: Homo sapiens, NB1.
Description: SANGER: Inhibition of human NB1 cell growth in a cell viability assay.
The molecule `COc1ccc(N(C(=O)Oc2c(C)cccc2C)c2ccnc(Nc3ccc(N4CCN(C)CC4)cc3)n2)c(OC)c1` yielded an IC50 of more than 5.12 µM.
The same measure, in the same setting: with `Cc1ccc(NC(=O)c2ccc(CN3CCN(C)CC3)cc2)cc1Nc1nccc(-c2cccnc2)n1` [IMATINIB] the figure was more than 2 µM.

In the next test the test system is NCI-H748. Briefly: cells. The test is classed as functional, cell-based, Homo sapiens. The conditions noted are these: Homo sapiens, NCI-H748.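 Further: growth inhibition of NCI-H748 cells, measured by a cell viability assay.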
Description: SANGER: Inhibition of human NCI-H748 cell growth in a cell viability assay.
`COc1ccc(N(C(=O)Oc2c(C)cccc2C)c2ccnc(Nc3ccc(N4CCN(C)CC4)cc3)n2)c(OC)c1` registered an IC50 of more than 5.12 µM.
Same read-out and setting: next, `Cc1ccc(NC(=O)c2ccc(CN3CCN(C)CC3)cc2)cc1Nc1nccc(-c2cccnc2)n1` [IMATINIB]: more than 2 µM.

Another test has as its system BC-3. Nature of the test: cells. The conditions noted are these: Homo sapiens, BC-3. The test is classed as functional, cell-based, Homo sapiens.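 Further: cell viability assay measuring growth inhibition of human BC-3 cells.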
Description: SANGER: Inhibition of human BC-3 cell growth in a cell viability assay.
The molecule `COc1ccc(N(C(=O)Oc2c(C)cccc2C)c2ccnc(Nc3ccc(N4CCN(C)CC4)cc3)n2)c(OC)c1` registered an IC50 of more than 5.12 µM.
The same measure, in the same setting: next, `Cc1ccc(NC(=O)c2ccc(CN3CCN(C)CC3)cc2)cc1Nc1nccc(-c2cccnc2)n1` [IMATINIB]: more than 2 µM.

Another test relates to CESS. Nature of the test: SANGER: Inhibition of human CESS cell growth in a cell viability assay. The test is classed as functional, cell-based. The conditions noted are these: Homo sapiens, CESS.
`COc1ccc(N(C(=O)Oc2c(C)cccc2C)c2ccnc(Nc3ccc(N4CCN(C)CC4)cc3)n2)c(OC)c1` registered an IC50 of more than 5.12 µM.
The molecule `Cc1ccc(NC(=O)c2ccc(CN3CCN(C)CC3)cc2)cc1Nc1nccc(-c2cccnc2)n1` [IMATINIB] came in with a concentration for half-maximal inhibition (IC50) of more than 2 µM.

In a further test the test system is CPC-N. Briefly: cells. The test is classed as functional, cell-based, Homo sapiens. The conditions noted are these: Homo sapiens, CPC-N.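 Further: growth inhibition of CPC-N cells, with a cell viability assay as the readout.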
Description: SANGER: Inhibition of human CPC-N cell growth in a cell viability assay.
In the case of `COc1ccc(N(C(=O)Oc2c(C)cccc2C)c2ccnc(Nc3ccc(N4CCN(C)CC4)cc3)n2)c(OC)c1`, the half-maximal inhibitory concentration (IC50) was more than 5.12 µM.
Same read-out and setting: next, `Cc1ccc(NC(=O)c2ccc(CN3CCN(C)CC3)cc2)cc1Nc1nccc(-c2cccnc2)n1` [IMATINIB]: more than 2 µM.

For the next test, the system named is NCI-H716. Briefly: cells. The test is classed as functional, cell-based, Homo sapiens. Conditions: Homo sapiens, NCI-H716.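 Further: growth inhibition of human NCI-H716 cells, measured by a cell viability assay.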
Description: SANGER: Inhibition of human NCI-H716 cell growth in a cell viability assay.
For `COc1ccc(N(C(=O)Oc2c(C)cccc2C)c2ccnc(Nc3ccc(N4CCN(C)CC4)cc3)n2)c(OC)c1`, the IC50 was more than 5.12 µM.
The same measure, in the same setting: with `Cc1ccc(NC(=O)c2ccc(CN3CCN(C)CC3)cc2)cc1Nc1nccc(-c2cccnc2)n1` [IMATINIB] the figure was more than 2 µM.

For another test, the system named is NCI-H1694. Briefly: cells. Conditions: Homo sapiens, NCI-H1694. The test is classed as functional, cell-based, Homo sapiens.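 Further: cell viability assay measuring inhibition of growth in human NCI-H1694 cells.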
Description: SANGER: Inhibition of human NCI-H1694 cell growth in a cell viability assay.
`COc1ccc(N(C(=O)Oc2c(C)cccc2C)c2ccnc(Nc3ccc(N4CCN(C)CC4)cc3)n2)c(OC)c1` showed an IC50 of more than 5.12 µM.
Still for that read-out and setting: with `Cc1ccc(NC(=O)c2ccc(CN3CCN(C)CC3)cc2)cc1Nc1nccc(-c2cccnc2)n1` [IMATINIB] the figure was more than 2 µM.

For another test, the system named is JIYOYE. Nature of the test: cells. The test is classed as functional, cell-based, Homo sapiens. The conditions noted are these: Homo sapiens, JIYOYE.
Description: SANGER: Inhibition of human JiyoyeP-2003 cell growth in a cell viability assay.
The molecule `COc1ccc(N(C(=O)Oc2c(C)cccc2C)c2ccnc(Nc3ccc(N4CCN(C)CC4)cc3)n2)c(OC)c1` showed an IC50 of more than 5.12 µM.
Same read-out and setting: with `Cc1ccc(NC(=O)c2ccc(CN3CCN(C)CC3)cc2)cc1Nc1nccc(-c2cccnc2)n1` [IMATINIB] the figure was more than 2 µM.

A further test has as its system NCI-H1436. Briefly: cells. The test is classed as functional, cell-based, Homo sapiens. Conditions: Homo sapiens, NCI-H1436.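 Further: growth suppression of human NCI-H1436 cells, determined with a cell viability readout.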
Description: SANGER: Inhibition of human NCI-H1436 cell growth in a cell viability assay.
Molecule `COc1ccc(N(C(=O)Oc2c(C)cccc2C)c2ccnc(Nc3ccc(N4CCN(C)CC4)cc3)n2)c(OC)c1` returned an IC50 of more than 5120 nM.
The same measure, in the same setting: with `Cc1ccc(NC(=O)c2ccc(CN3CCN(C)CC3)cc2)cc1Nc1nccc(-c2cccnc2)n1` [IMATINIB] the figure was 978 nM.

In the next test the test system is KARPAS-422. Nature of the test: cells. The test is classed as functional, cell-based, Homo sapiens. The conditions noted are these: Homo sapiens, KARPAS-422.
Description: SANGER: Inhibition of human KARPAS-422 cell growth in a cell viability assay.
On to `COc1ccc(N(C(=O)Oc2c(C)cccc2C)c2ccnc(Nc3ccc(N4CCN(C)CC4)cc3)n2)c(OC)c1`, for which the IC50 was more than 5.12 µM.
The molecule `Cc1ccc(NC(=O)c2ccc(CN3CCN(C)CC3)cc2)cc1Nc1nccc(-c2cccnc2)n1` [IMATINIB] showed an IC50 of more than 2 µM.

In another test the test system is RPMI-6666. Nature of the test: cells. The test is classed as functional, cell-based, Homo sapiens. Conditions: Homo sapiens, RPMI-6666.
Description: SANGER: Inhibition of human RPMI-6666 cell growth in a cell viability assay.
On to `COc1ccc(N(C(=O)Oc2c(C)cccc2C)c2ccnc(Nc3ccc(N4CCN(C)CC4)cc3)n2)c(OC)c1`, for which the IC50 is more than 5.12 µM.
As for `Cc1ccc(NC(=O)c2ccc(CN3CCN(C)CC3)cc2)cc1Nc1nccc(-c2cccnc2)n1` [IMATINIB], the half-inhibitory concentration (IC50) is more than 2 µM.

The next test has as its system EB-3. Briefly: cells. The test is classed as functional, cell-based, Homo sapiens. The conditions noted are these: Homo sapiens, EB-3.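 Further: human EB-3 cells, growth inhibition read out via a cell viability assay.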
Description: SANGER: Inhibition of human EB-3 cell growth in a cell viability assay.
Consider `COc1ccc(N(C(=O)Oc2c(C)cccc2C)c2ccnc(Nc3ccc(N4CCN(C)CC4)cc3)n2)c(OC)c1`, for which 2160 nM corresponded to half-maximal inhibition (IC50).
On the same count and under the same terms, next, `Cc1ccc(NC(=O)c2ccc(CN3CCN(C)CC3)cc2)cc1Nc1nccc(-c2cccnc2)n1` [IMATINIB]: more than 2000 nM.

For a further test, the system named is BC1 cell line. Briefly: SANGER: Inhibition of human BC-1 cell growth in a cell viability assay. The test is classed as functional, cell-based. The conditions noted are these: Homo sapiens, BC1.
Molecule `COc1ccc(N(C(=O)Oc2c(C)cccc2C)c2ccnc(Nc3ccc(N4CCN(C)CC4)cc3)n2)c(OC)c1` gave an IC50 of more than 5.12 µM.
Same read-out and setting: with `Cc1ccc(NC(=O)c2ccc(CN3CCN(C)CC3)cc2)cc1Nc1nccc(-c2cccnc2)n1` [IMATINIB] the figure was more than 2 µM.
